Experimental data taken from PubChem BioAssay (NCI).
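Briefly, cells in 96-well plates were exposed to five compound concentrations for 48 h, and endpoints were estimated by linear interpolation. At the GI50, growth is halved. TGI: total growth inhibition.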 Where a SMILES comes first, the peptide text is derived from it. The star is where a group is joined. Boc = CC(C)(C)OC(=O)*

What was measured:
Assay in all cases: NCI-60 cell line screen, 48 h
SNB-75 CNS = tested on: SNB-75 CNS
UO-31 renal = tested on: UO-31 renal
K-562 leukemia = tested on: K-562 leukemia
SN12C renal = tested on: SN12C renal
NCI/ADR-RES ovarian = tested on: NCI/ADR-RES ovarian
MDA-MB-231 breast = tested on: MDA-MB-231 breast
MOLT-4 leukemia = tested on: MOLT-4 leukemia
SF-268 CNS = tested on: SF-268 CNS
CCRF-CEM leukemia = tested on: CCRF-CEM leukemia
NCI-H460 lung = tested on: NCI-H460 lung
OVCAR-5 ovarian = tested on: OVCAR-5 ovarian
RPMI-8226 leukemia = tested on: RPMI-8226 leukemia
HL-60(TB) leukemia = tested on: HL-60(TB) leukemia
HS 578T breast = tested on: HS 578T breast
OVCAR-8 ovarian = tested on: OVCAR-8 ovarian
SK-MEL-28 melanoma = tested on: SK-MEL-28 melanoma

| SMILES | TGI (SNB-75 CNS) [µM] | TGI (UO-31 renal) [µM] | TGI (K-562 leukemia) [µM] | TGI (SN12C renal) [µM] | TGI (NCI/ADR-RES ovarian) [µM] | TGI (MDA-MB-231 breast) [µM] | TGI (MOLT-4 leukemia) [µM] | TGI (SF-268 CNS) [µM] | TGI (CCRF-CEM leukemia) [µM] | TGI (NCI-H460 lung) [µM] | TGI (OVCAR-5 ovarian) [µM] | TGI (RPMI-8226 leukemia) [µM] | TGI (HL-60(TB) leukemia) [µM] | TGI (HS 578T breast) [µM] | TGI (OVCAR-8 ovarian) [µM] | TGI (SK-MEL-28 melanoma) [µM] | GI50 (SF-268 CNS) [µM] |
| --- | --- | --- | --- | --- | --- | --- | --- | --- | --- | --- | --- | --- | --- | --- | --- | --- | --- |
| Cn1c(=O)oc2cc(C(=O)CN3CCN(Cc4ccc5c(c4)OCO5)CC3)c(Cl)cc21 | > 100 | > 100 | > 100 | > 100 | > 100 | > 100 | > 100 | > 100 | > 100 | > 100 | > 100 | > 100 | > 100 | > 100 |  |  |  |
| O=C1CCN(CCC(F)(F)C(F)(F)C(F)(F)C(F)(F)F)C(=S)N1 | > 100 | > 100 | > 100 | > 100 |  |  | > 100 | > 100 | > 100 | > 100 | > 100 | > 100 | > 100 |  | > 100 | > 100 |  |
| COc1cc(/C=C(\C)c2ccc3c(c2)OCO3)cc(OC)c1OC | 37.8 | 79.2 | > 100 | > 100 |  |  | 75.9 | > 100 | > 100 | > 100 | > 100 |  | > 100 |  | > 100 | > 100 |  |
| COc1ccc(-c2c(C(C)=O)c(C)n(C3OC(COC(C)=O)C(OC(C)=O)C(OC(C)=O)C3OC(C)=O)c(=S)c2C#N)cc1 (stereo not given) | > 100 | 5.01 | > 100 | > 100 | > 100 | > 100 | > 100 | > 100 | > 100 | > 100 | > 100 |  | > 100 |  | > 100 | > 100 |  |
| CC(C)C1=CC23CCC4C(C)(C(=O)O)CCCC4(C)C2CC1C1C(=O)N(c2ccc(N4C(=O)C5C6CC7C8(C)CCCC(C)(C(=O)O)C8CCC7(C=C6C(C)C)C5C4=O)cc2)C(=O)C13 (stereo not given) |  | 34 | > 100 | 17.5 |  | 21.5 | 22 | 22.3 | 19.4 |  | 22 | 80.3 | 17.2 | 30.2 | 16.5 | 16.7 |  |
| COc1ccc(NS(=O)(=O)c2ccc3ncn(NS(=O)(=O)c4ccc(I)cc4)c(=O)c3c2)cc1 | > 100 | > 100 | > 100 | > 100 | > 100 | > 100 | > 100 | > 100 | > 100 | > 100 | > 100 | > 100 | > 100 | > 100 | > 100 | > 100 |  |
| COc1ccc(-c2cc(=O)c3cc4c(cc3[nH]2)OCO4)c(OC)c1 | 31.2 | > 100 | > 100 | > 100 |  |  | > 100 | > 100 | > 100 | > 100 |  | > 100 | 46.3 |  | > 100 | > 100 | 62.6 |
| N#Cc1nc(/C=C/c2cccs2)oc1N | > 100 | 63.6 | > 100 | > 100 |  | > 100 | > 100 | > 100 | > 100 |  | > 100 | > 100 | > 100 | > 100 | > 100 | > 100 |  |
| NC(=S)N/N=C/c1cn(CCCl)c2ccccc12 | 86 | > 100 | > 100 | > 100 |  |  | > 100 | > 100 | > 100 |  | > 100 | > 100 | 53.8 |  | > 100 | > 100 |  |
| ClCc1nnc2n1-c1ccc(Cl)cc1SC2 | 10.3 | 30.3 | > 100 | 29.6 | 4.76 |  | 3.98 | 9.55 | 8.42 | 14 | 24.6 | > 100 | 3.51 |  | > 39.5 | 17.6 |  |
| CN1CCN(Cn2nc(-c3ccccc3)n(/N=C/c3ccc(-c4ccc(Cl)cc4Cl)o3)c2=S)CC1 |  | 29 | 24.7 |  | 56.2 | 29.9 | 5.15 | 26.2 | 23.2 | > 100 | 48 | 75.6 | 80.3 | > 100 | 25.8 | 77.8 |  |
| CN1C[C@@H]2CC(=O)CC[C@@H]2C[C@H]1C#N | > 100 | > 100 | > 100 | > 100 |  |  | > 100 | > 100 | > 100 | > 100 | > 100 | > 100 | > 100 |  | > 100 |  |  |
| O=C(CC(O)(C(F)(F)Cl)C(F)(F)Cl)CC(O)(C(F)(F)Cl)C(F)(F)Cl | 9.7 | > 10 | 4.45 | > 10 | > 10 | 5.29 | > 10 | > 10 | > 10 | > 10 |  | 4.84 | 4.94 | 7.86 | > 10 | > 10 |  |
| Cc1cc2c(=O)c3ccc(Cl)cc3[nH]c2c(C(=O)O)c1C | > 100 | > 100 | > 100 | > 100 |  |  | > 100 | > 100 | > 100 | > 100 | > 100 | > 100 |  |  | > 100 | > 100 |  |
| CNC(=O)CNC(=O)C(NC(=O)CNC(=O)C1CCCN1C(=O)C(C)NC(=O)C(NC(=O)OC(C)(C)C)C(C)C)C(C)C (stereo not given) (Boc-VAPGVG-NHMe; configuration not given here) | > 100 | > 100 | > 100 | > 100 | > 100 | > 100 | > 100 | > 100 | > 100 | > 100 | > 100 | > 100 | > 100 |  | > 100 | > 100 |  |
| Nc1ccc(N=Nc2ccc(-c3ccc(N=Nc4c(S(=O)(=O)O)cc5cc(S(=O)(=O)O)c(N=Nc6ccc([N+](=O)[O-])cc6)c(N)c5c4O)cc3)cc2)c2cc(S(=O)(=O)O)ccc12 | > 100 | > 100 | > 100 | > 100 |  |  | > 100 | > 100 | > 100 | > 100 | > 100 | > 100 | > 100 |  | > 100 | > 100 |  |
| Nc1c2ccccc2nc2nccnc12 | > 100 | > 100 | > 100 | > 100 |  |  | > 100 | > 100 | > 100 | > 100 | > 100 | > 100 | > 100 |  | > 100 | > 100 |  |
| CC12CCC3C(CCC4(O)C=CCCC34C=O)C1(O)CC(O)C2c1ccc(=O)oc1 (stereo not given) | 0.246 | 0.141 | 1.29 | 0.199 | 0.282 |  | 0.394 | 0.0754 | 10.1 | 0.0716 | 0.638 | 0.839 |  |  | 0.193 | 0.799 |  |
| CC1(C)OP(=O)(c2ccccc2)C=C1Br (stereo not given) | > 100 |  | > 100 | > 100 | > 100 |  |  | > 100 |  | > 100 | > 100 | > 100 | > 100 | > 100 | > 100 | > 100 |  |
| CCNc1nc2c(=O)n(C)c(=O)n(C)c2s1 | > 100 | > 100 | > 100 | > 100 |  |  | > 100 | > 100 | > 100 | > 100 | > 100 | > 100 | > 100 |  | > 100 | > 100 |  |
| CC1(C)OC[C@@H]([C@H](C=O)OCc2ccccc2)O1 | > 100 | > 100 | > 100 | > 100 | > 100 | > 100 | > 100 | > 100 | > 100 |  | > 100 | > 100 |  | > 100 | > 100 | > 100 |  |
| Cc1ccc(NCCO)cc1 | > 100 | > 100 | > 100 | > 100 |  |  | > 100 | > 100 | > 100 | > 100 | > 100 | > 100 | > 100 |  | > 100 | > 100 |  |
| COc1ccc(/C=C2\C(=O)Nc3ccccc32)cc1OC | 81.3 | > 100 | > 100 | > 100 |  |  | > 100 | > 100 | > 100 | > 100 | > 100 | 64 | > 100 |  | > 100 | > 100 |  |
| CCN(CC)CCC1CCCCN1CC(=O)N1c2ccccc2NC(=O)CC1C (stereo not given) | 11.8 | > 100 | > 100 | > 100 |  | > 100 | > 100 | > 100 | > 100 | > 100 | > 100 | > 100 | > 100 | > 100 | > 100 | > 100 |  |
| N#CC(NNC(=O)Cc1ccccc1)c1ccc(O)cc1 (stereo not given) | 97.5 | > 100 | > 100 | > 100 |  |  | > 100 | > 100 | > 100 | > 100 | > 100 | > 100 | > 100 |  | > 100 | > 100 |  |
